One may read the half-life as the time needed for the level to fall by half in the phase considered. Low readings indicate fast loss, high ones slow loss. The AUC is the area under the concentration-time curve, a measure of exposure. Usually Cmax stands for the peak of the concentration-time curve. By Tmax is commonly meant the time at which the peak concentration occurs. By pIC50 is commonly meant the negative decadic logarithm of the IC50, by convention in mol/L. High values mean a small IC50, low ones a large IC50.

Experimental findings from patent US20240368134A1, “AROMATIC COMPOUND, PHARMACEUTICAL COMPOSITION, AND APPLICATION THEREOF” (SHANGHAI KYGENT PHARMACEUTICAL CO., LTD, priority 2021, published 2024) are described below.

pIC50: −log10 of the molar value. Like-named read-outs stand apart in the source and are kept apart here.

Series [1] can be described thus: Pharmacokinetic evaluation experiment in mice (IV and PO). The settings on record: male ICR mice; for Vd: read-out: Vss. The format is in vivo. The procedure:
120 healthy adult male ICR mice were selected and divided into 20 groups according to the principle of similar body weight, with 6 mice in each group of IV (10 groups) and 6 mice in each group of PO (10 groups). An appropriate amount of sample was weighed, sequentially added with an appropriate amount of DMA, Solutol, and Saline according to the volume ratio of 10:10:80, and stirred and sonicated to achieve a clarification of 1 mg/mL. After overnight fasting, mice in the IV group were intravenously administered with a volume of 5 mL/kg and a dose of 5 mg/kg, respectively; and mice in the PO group were intragastrically administered with a volume of 30 mL/kg and a dose of 30 mg/kg, respectively. Interleaved sampling was performed on every 6 mice after administration of the test compound. In the IV group, approximately 30 μL of blood was collected at 0.0833, 0.25, 0.5, 1, 2, 4, 6, 8, and 24 hours, and placed in a commercial anticoagulant tube pre-filled with EDTA-K2. In the PO group, approximately 30 μL of blood was collected at 0.25, 0.5, 1, 2, 4, 6, 8, and 24 hours, and placed in the commercial anticoagulant tube pre-filled with EDTA-K2. The tubes were centrifuged for 15 minutes to separate the plasma, and the plasma was stored at −80° C. Animals were allowed to eat 2 hours after administration. The content of the test compound in the plasma of mice after intravenous and intragastric administration was determined by LC/MS/MS method. The linear range of the method was 1.00 to 1000 ng/mL: plasma samples were analyzed after protein precipitation.

Another series relates to NCI-H2052 cells. Kind of series: Tumor cell proliferation inhibition experiment (Cell Titer Glo), NCI-H2052. It counts as cell-based. The settings on record: NCI-H2052 lung cancer cells, three days incubation. The procedure: (§1) Cell Titer Glo luminescent cell viability assay kit was used to quantify the ATP content in cells, so as to quantify the number of viable cells. […] On the second day, the compound was added to the 96-well plate after a three-fold serial dilution to eight concentrations, and incubated at 37° C. for three days in the 5% carbon dioxide incubator. The culture medium was treated with the addition of Cell Titer Glo luminescent cell viability assay kit (Promega G7570) reagent, incubated for 10 minutes, and then placed in Envision (Pelkin Elmer) to read the luminescence signal. DMSO was used instead of the compound as a control to calculate the inhibition rate (inhibition rate %=(1−compound signal/DMSO signal)*100), and then standard four parameter curve fitting was used to calculate the inhibitory activity IC50.

Another series has as its system MSTO-211H cells. Kind of series: Tumor cell proliferation inhibition experiment (Cell Titer Glo), MSTO-211H. The settings on record: MSTO-211H lung cancer cells, three days incubation. It counts as cell-based. The procedure: as §1
Background: ATP-based viability assays read luminescence as a measure of living cells.

Where [2] appears, read: mouse, plasma, PO 30 mg/kg vs IV 5 mg/kg.
Where [3] appears, read: mouse, IV 5 mg/kg, plasma, read-out: AUC.
Setting [4] is: mouse, PO 30 mg/kg, plasma, read-out: AUC.
The mark [5] stands for this setting: mouse, PO 30 mg/kg, plasma, read-out: Cmax.
The mark [6] stands for this setting: mouse, PO 30 mg/kg, plasma, read-out: Tmax.

For the molecule `CNC(=O)c1cnc(OCCO)c(F)c1-c1c(Cl)c(F)cc2c1C[C@](c1ccccc1)([C@@H]1CC3(CC3)CN1)O2` [Compound 10a], the bioavailability in series [1] (setting [2]) came to 17.3%. In addition, in series [1] (mouse, IV 5 mg/kg, plasma), the clearance stood at 50.4 mL/min/kg, the half-life is 1.11 h and the Vd amounted to 2.42 L/kg. For the same molecule, the AUC in series [1] (setting [3]) was 1650 ng·h/mL. Moreover, the AUC in series [1] (setting [4]) was found to be 1710 ng·h/mL. Also, the Cmax in series [1] (setting [5]) worked out at 603 ng/mL. The Tmax in series [1] (setting [6]) amounted to 0.5 h. The molecule also had a pIC50 in the series on NCI-H2052 cells (Homo sapiens, 72 h) of 6.48. Also, in the series on MSTO-211H cells (Homo sapiens, 72 h), the pIC50 was 6.63.

`CNC(=O)c1cc2c(c(F)c1-c1c(Cl)c(F)cc3c1C[C@@](CN[C@H]1CC[C@H](O)CC1)(c1ccccc1)O3)C1CC1O2` (stereo partly drawn) [Compound 13a]: the bioavailability in series [1] (setting [2]) is 108%. Moreover, in series [1] (mouse, IV 5 mg/kg, plasma), the clearance came out at 41.4 mL/min/kg, the half-life was 2.23 h and the Vd was 8.5 L/kg. In addition, the area under the curve (AUC) in series [1] (setting [3]) came out at 2010 ng·h/mL. The AUC in series [1] (setting [4]) was found to be 13100 ng·h/mL. In series [1] (setting [5]), the Cmax turned out to be 2050 ng/mL. Also, in series [1] (setting [6]), the Tmax came to 2 h. Also, the pIC50 with NCI-H2052 cells (Homo sapiens, 72 h) is 6.68. Also, the negative-log IC50 (pIC50) in the series on MSTO-211H cells (Homo sapiens, 72 h) is 6.70.

For `CNC(=O)c1cc2c(c(F)c1-c1c(Cl)c(F)cc3c1C[C@@](CN[C@H]1CC[C@](C)(O)CC1)(c1ccccc1)O3)C1CC1O2` (stereo partly drawn) [Compound 14a], in series [1] (IV 5 mg/kg, plasma), the “AUC” value is 3462 ng·h/mL, the “CL” value stood at 24.1 mL/min/kg, the “T1/2” value was 2.35 h and the “Vss” value came out at 4.34 L/kg. The molecule also came in with a F % in series [1] (PO 30 mg/kg vs IV 5 mg/kg) of 102.1%. For the same molecule, in series [1] (PO 30 mg/kg, plasma), the “AUC” value came to 21209 ng·h/mL, the “Cmax” value is 2697 ng/mL and the “Tmax” value stood at 2.00 h. In the series with NCI-H2052 cells, this molecule had a pIC50 of 6.44. Moreover, in the series with MSTO-211H cells, the pIC50 is 6.49.

In the case of `CNC(=O)c1cc2c(c(F)c1-c1c(Cl)c(F)cc3c1C[C@](c1ccccc1)([C@@H]1CC4(CC4)CN1)O3)C1CC1O2` (stereo partly drawn) [Compound 16a], the bioavailability in series [1] (setting [2]) worked out at 40.3%. In series [1] (mouse, IV 5 mg/kg, plasma), the clearance was found to be 56.4 mL/min/kg, the half-life is 2.28 h and the Vd was 11.4 L/kg. Besides, in series [1] (setting [3]), the AUC was 1480 ng·h/mL. Besides, in series [1] (setting [4]), the AUC is 3570 ng·h/mL. Also, the Cmax in series [1] (setting [5]) is 434 ng/mL. Also, in series [1] (setting [6]), the Tmax stood at 2 h. In the series with NCI-H2052 cells (Homo sapiens, 72 h), the pIC50 is 5.73. This molecule showed a pIC50 in the series on MSTO-211H cells (Homo sapiens, 72 h) of 5.76.

As for `CNC(=O)c1cc2c(c(F)c1-c1c(Cl)c(F)cc3c1C[C@](c1ccccc1)([C@@H]1CCCN1)O3)OC1CC21` (stereo partly drawn) [Compound 17a], in series [1] (setting [2]), the bioavailability was 52.2%. In series [1] (mouse, IV 5 mg/kg, plasma), the clearance was determined as 75.8 mL/min/kg, the half-life is 1.79 h and the Vd was determined as 11.7 L/kg. Also, the AUC in series [1] (setting [3]) amounted to 1100 ng·h/mL. Besides, the exposure (AUC) in series [1] (setting [4]) stood at 3450 ng·h/mL. Also, in series [1] (setting [5]), the Cmax was 424 ng/mL. In addition, in series [1] (setting [6]), the Tmax was 1.33 h. Besides, the pIC50 in the series on NCI-H2052 cells (Homo sapiens, 72 h) was 7.05. Besides, the pIC50 with MSTO-211H cells (Homo sapiens, 72 h) was 7.10.

Take `CNC(=O)c1cc2c(c(F)c1-c1c(Cl)c(F)cc3c1C[C@](c1ccccc1)([C@@H]1CC4(CC4)CN1)O3)OC1CC21` (stereo partly drawn) [Compound 18a]: the bioavailability in series [1] (setting [2]) turned out to be 27.9%. Moreover, in series [1] (mouse, IV 5 mg/kg, plasma), the clearance was 107 mL/min/kg, the half-life was 1.59 h and the Vd came to 12.2 L/kg. For the same molecule, in series [1] (setting [3]), the AUC turned out to be 804 ng·h/mL. For the same molecule, in series [1] (setting [4]), the AUC was 1680 ng·h/mL. The Cmax in series [1] (setting [5]) was 199 ng/mL. Also, the Tmax in series [1] (setting [6]) turned out to be 0.8 h. The molecule also showed a pIC50 with NCI-H2052 cells (Homo sapiens, 72 h) of 6.14. The pIC50 in the series on MSTO-211H cells (Homo sapiens, 72 h) is 6.16.

Turning to `CNC(=O)c1cc2c(c(F)c1-c1c(Cl)c(F)cc3c1C[C@](c1ccccc1)([C@@H]1CCCN1)O3)CCC2` [Compound 31a], the bioavailability in series [1] (setting [2]) turned out to be 44.6%. Besides, in series [1] (mouse, IV 5 mg/kg, plasma), the clearance was found to be 17.9 mL/min/kg, the half-life is 3.52 h and the Vd came out at 4.44 L/kg. For the same molecule, the AUC in series [1] (setting [3]) amounted to 2790 ng·h/mL. Moreover, the AUC in series [1] (setting [4]) turned out to be 7470 ng·h/mL. For the same molecule, the Cmax in series [1] (setting [5]) was found to be 928 ng/mL. Besides, in series [1] (setting [6]), the time to peak (Tmax) is 1 h. Moreover, the pIC50 with NCI-H2052 cells (Homo sapiens, 72 h) was 6.60. In the series on MSTO-211H cells (Homo sapiens, 72 h), this molecule gave a pIC50 of 6.70.

Regarding `CNC(=O)c1cc2c(c(F)c1-c1c(Cl)c(F)cc3c1C[C@](c1ccccc1)([C@@H]1CCCN1)O3)CCC2O` (stereo partly drawn) [Compound 41a], the bioavailability in series [1] (setting [2]) was found to be 61.8%. In series [1] (mouse, IV 5 mg/kg, plasma), the clearance was found to be 36.5 mL/min/kg. The half-life in series [1] (mouse, IV 5 mg/kg, plasma) was 2.19 h. The AUC in series [1] (setting [3]) stood at 2280 ng·h/mL; in series [1] (setting [4]) it was 8460 ng·h/mL. The Vd in series [1] (mouse, IV 5 mg/kg, plasma) is 5.32 L/kg. Besides, the Cmax in series [1] (setting [5]) turned out to be 1270 ng/mL. Also, in series [1] (setting [6]), the Tmax is 2 h. Moreover, the pIC50 in the series on NCI-H2052 cells (Homo sapiens, 72 h) is 6.38; in the series with MSTO-211H cells (Homo sapiens, 72 h), 6.72.

On to `NC(=O)c1cc2c(c(F)c1-c1c(Cl)c(F)cc3c1C[C@](c1ccccc1)([C@@H]1CCCN1)O3)CCC2O` (stereo partly drawn) [Compound 53a], for which, in series [1] (setting [2]), the bioavailability came out at 14.4%. The molecule further yielded a clearance in series [1] (mouse, IV 5 mg/kg, plasma) of 44.2 mL/min/kg. The half-life in series [1] (mouse, IV 5 mg/kg, plasma) was 4.18 h. For the same molecule, the figures for the AUC in series [1] (setting [3]) and in series [1] (setting [4]) were 1880 ng·h/mL and 1620 ng·h/mL, respectively. Further, in series [1] (mouse, IV 5 mg/kg, plasma), the Vd turned out to be 6.94 L/kg. In addition, the maximum concentration (Cmax) in series [1] (setting [5]) came out at 301 ng/mL. Moreover, in series [1] (setting [6]), the time to peak (Tmax) came to 0.5 h. Also, the negative logarithm of the IC50 (pIC50) with NCI-H2052 cells (Homo sapiens, 72 h) is 6.80; with MSTO-211H cells (Homo sapiens, 72 h), 6.82.
